Assay results from US6825209B2, “Compounds having unique CB1 receptor binding selectivity and methods for their production and use” (Research Triangle Institute, priority 2002, dated 2004).

biological target: T1, CB1 receptor (Rattus norvegicus, UniProt P20272); assay: Radioligand displacement in whole rat brain (CB1) membrane preparations; format: binding; conditions: Ki, displacement of 3H-CP55940, whole rat brain; 3H-CP55940; Table 4, parallel synthesis analogs, n = 1, concentration assumes 100% yield
T1 construct: Whole rat brains or dissected regions from live CD rats; tissue Charles River or Pel-Freez Biologicals; host or cells: whole rat brain (CD rats), P2 membrane
Source text: CB1 receptor affinity in rat brain.
Methods—membrane preparation from brain. The methods for tissue preparation are essentially those described by Devane et al. (1988) as modified by Compton et al. (1993) and later by Thomas et al. (1998). Whole rat brains or dissected regions from live CD rats from Charles River or Pel-Freez Biologicals (Rogers, Ark.), or human brain sections obtained from the National Disease Research Institute, were allowed to thaw to room temperature on ice. Both whole brain and dissected brain regions were used because different brain regions may express different cannabinoid receptor subtypes (Skaper et al., 1996; Thomas et al., 1998). The tissue was homogenized with a Kontes Potter-Elvehjem glass-Teflon grinding system (Fisher Scientific, Springfield, N.J.) in buffer 1 (320 mM sucrose, 2 mM EDTA, 5 mM MgCl2. The homogenate was centrifuged at 1600 g for 10 min. The supernatant was saved and combined with the two subsequent supernatants obtained from washing and 1600 g centrifugation of the P1 pellet. The combined supernatant fractions were then centrifuged at 39,000 g for 15 min. The P2 pellet was resuspended in 50 mL of buffer 2 (50 mM Tris.HCl, 2 mM EDTA, 5 mM MgCl2, pH 7.0), incubated at 37° C. for 10 min, then centrifuged at 23,000 g for 10 min. The P2 membrane was resuspended in 50 mL of buffer 2, incubated at 30° C. for 40 min, then centrifuged at 11,000 g for 15 min. The final wash-treated P2 pellet was resuspended in assay buffer 3 (50 mM Tris.HCl, 1 mM EDTA, 3 MM MgCl2, pH 7.4). Protein concentrations were determined by the method of Bradford (1976) using Coomassie brilliant blue dye (Bio-Rad, Richmond, Calif.) and BSA standards (bovine serum albumin, fatty acid free, Sigma Chemical Co., St. Louis, Mo.) prepared in assay buffer 3. The membrane preparation was divided into aliquots and stored at −80° C. For use in the binding assay, an aliquot of frozen membranes was thawed on ice and diluted to a concentration of ca. 0.2 mg/mL in assay buffer.
Methods—binding assay in brain membrane preparation. The methods for ligand binding are essentially those described by Devane et al. (1988) with the exception that we used a filtration assay. […] All cannabinoid analogs were prepared by suspension in buffer A from a 1-5 mg/mL ethanolic stock. Following incubation at 30° C. for 1 h, binding was terminated by vacuum filtration through pretreated filters in a 96-well sampling manifold (Millipore, Bedford, Mass.). Reaction vessels were washed at least 3 times with 1 mL of ice cold buffer B (50 mM Tris.HCl, 1 mg/mL BSA). The filter plates were air-dried and sealed on the bottom. Liquid scintillant was added to the wells and the top sealed. After incubating the plates in cocktail for at least 2 h, the radioactivity present was determined by liquid scintillation spectrometry. Assays were done in duplicate, and results represent the combined data of three to six independent experiments. All assays were performed in polypropylene test tubes. The GF/C glassfiber filter plates (Packard, Meriden, Conn.) were pretreated in buffer B for at least 1 h.
(§1) Data analysis. Saturation and displacement data were analyzed by unweighted nonlinear regression of receptor binding data. For displacement studies, curve-fitting and IC50 calculation were done with GraphPad Prism (GraphPad Software, Inc., San Diego, Calif.), which fits the data to one and two-site models and compares the two fits statistically. A similar approach was used for the analysis of isotherm data for calculation of Kd's. A two-site fit was accepted only if it was statistically significant (p<0.05) and the following results were not observed:
(§2) IC50 values were then converted to Ki values by reported methods (Cheng and Prusoff, 1973). The statistical evaluation of curve-fitting data allowed for a non-arbitrary conclusion based on the displacement data.

T1 sequence (P20272 whole entry): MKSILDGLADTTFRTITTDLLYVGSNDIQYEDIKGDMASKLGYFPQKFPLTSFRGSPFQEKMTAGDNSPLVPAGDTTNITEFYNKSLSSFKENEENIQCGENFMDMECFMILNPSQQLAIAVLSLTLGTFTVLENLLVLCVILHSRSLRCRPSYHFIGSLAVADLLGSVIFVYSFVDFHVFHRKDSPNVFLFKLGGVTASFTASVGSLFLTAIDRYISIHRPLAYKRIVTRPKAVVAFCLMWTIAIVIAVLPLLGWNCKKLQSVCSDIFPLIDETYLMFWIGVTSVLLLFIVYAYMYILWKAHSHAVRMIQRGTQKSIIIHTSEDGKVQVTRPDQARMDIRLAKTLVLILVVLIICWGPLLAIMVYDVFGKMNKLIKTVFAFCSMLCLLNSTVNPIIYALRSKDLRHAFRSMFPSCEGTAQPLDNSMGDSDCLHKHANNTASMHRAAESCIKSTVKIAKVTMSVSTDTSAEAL

Row | Structure (SMILES) | Ki
1 | COc1ccc(CCNC(=O)c2nn(-c3ccc(Cl)cc3Cl)c(-c3ccc(Cl)cc3)c2C)cc1 [AM-29] | 92.6 nM
2 | COc1ccc(NC(=O)c2nn(-c3ccc(Cl)cc3Cl)c(-c3ccc(Cl)cc3)c2C)cc1 [AN-2] | 91 nM
3 | CCCCCCCCCCCCCNC(=O)c1nn(-c2ccc(Cl)cc2Cl)c(-c2ccc(Cl)cc2)c1C [BT-6] | 492 nM
4 | Cc1c(C(=O)NC(C)Cc2ccc(Cl)cc2)nn(-c2ccc(Cl)cc2Cl)c1-c1ccc(Cl)cc1 (centres unmarked) [AKS-10262-10] | 18.4 nM

same assay, conditions: Ki, displacement of 3H-SR141716A, whole rat brain; 3H-SR141716A; Table 4, parallel synthesis analogs, n = 1, concentration assumes 100% yield

Row | Structure (SMILES) | Ki
5 | COc1ccc(CCNC(=O)c2nn(-c3ccc(Cl)cc3Cl)c(-c3ccc(Cl)cc3)c2C)cc1 [AM-29] | 40.7 nM
6 | COc1ccc(NC(=O)c2nn(-c3ccc(Cl)cc3Cl)c(-c3ccc(Cl)cc3)c2C)cc1 [AN-2] | 11.8 nM
7 | CCCCCCCCCCCCCNC(=O)c1nn(-c2ccc(Cl)cc2Cl)c(-c2ccc(Cl)cc2)c1C [BT-6] | 172 nM
8 | Cc1c(C(=O)NC(C)Cc2ccc(Cl)cc2)nn(-c2ccc(Cl)cc2Cl)c1-c1ccc(Cl)cc1 (centres unmarked) [AKS-10262-10] | 2.7 nM

same assay, conditions: Ki, displacement of 3H-WIN55212-2, whole rat brain; 3H-WIN55212-2; Table 4, parallel synthesis analogs, n = 1, concentration assumes 100% yield

Row | Structure (SMILES) | Ki
9 | COc1ccc(CCNC(=O)c2nn(-c3ccc(Cl)cc3Cl)c(-c3ccc(Cl)cc3)c2C)cc1 [AM-29] | 24.7 nM
10 | COc1ccc(NC(=O)c2nn(-c3ccc(Cl)cc3Cl)c(-c3ccc(Cl)cc3)c2C)cc1 [AN-2] | 30.4 nM
11 | CCCCCCCCCCCCCNC(=O)c1nn(-c2ccc(Cl)cc2Cl)c(-c2ccc(Cl)cc2)c1C [BT-6] | 495 nM
12 | Cc1c(C(=O)NC(C)Cc2ccc(Cl)cc2)nn(-c2ccc(Cl)cc2Cl)c1-c1ccc(Cl)cc1 (centres unmarked) [AKS-10262-10] | 10.1 nM

same assay, conditions: whole rat brain; 3H-CP55940; Table 4, parallel synthesis analogs, n = 1

Row | Structure (SMILES) | Max. Disp. %, 3H-CP55940
13 | COc1ccc(CCNC(=O)c2nn(-c3ccc(Cl)cc3Cl)c(-c3ccc(Cl)cc3)c2C)cc1 [AM-29] | 78.8%
14 | COc1ccc(NC(=O)c2nn(-c3ccc(Cl)cc3Cl)c(-c3ccc(Cl)cc3)c2C)cc1 [AN-2] | 96.4%
15 | CCCCCCCCCCCCCNC(=O)c1nn(-c2ccc(Cl)cc2Cl)c(-c2ccc(Cl)cc2)c1C [BT-6] | 79.3%

same assay, conditions: whole rat brain; 3H-SR141716A; Table 4, parallel synthesis analogs, n = 1

Row | Structure (SMILES) | Max. Disp. %, 3H-SR141716A
16 | COc1ccc(CCNC(=O)c2nn(-c3ccc(Cl)cc3Cl)c(-c3ccc(Cl)cc3)c2C)cc1 [AM-29] | 95.1%
17 | COc1ccc(NC(=O)c2nn(-c3ccc(Cl)cc3Cl)c(-c3ccc(Cl)cc3)c2C)cc1 [AN-2] | 95.4%
18 | CCCCCCCCCCCCCNC(=O)c1nn(-c2ccc(Cl)cc2Cl)c(-c2ccc(Cl)cc2)c1C [BT-6] | 97.6%
19 | Cc1c(C(=O)NC(C)Cc2ccc(Cl)cc2)nn(-c2ccc(Cl)cc2Cl)c1-c1ccc(Cl)cc1 (centres unmarked) [AKS-10262-10] | 95.9%

same assay, conditions: whole rat brain; 3H-WIN55212-2; Table 4, parallel synthesis analogs, n = 1

Row | Structure (SMILES) | Max. Disp. %, 3H-WIN55212-2
20 | COc1ccc(CCNC(=O)c2nn(-c3ccc(Cl)cc3Cl)c(-c3ccc(Cl)cc3)c2C)cc1 [AM-29] | 82.7%
21 | COc1ccc(NC(=O)c2nn(-c3ccc(Cl)cc3Cl)c(-c3ccc(Cl)cc3)c2C)cc1 [AN-2] | 85.8%
22 | CCCCCCCCCCCCCNC(=O)c1nn(-c2ccc(Cl)cc2Cl)c(-c2ccc(Cl)cc2)c1C [BT-6] | 80.5%
23 | Cc1c(C(=O)NC(C)Cc2ccc(Cl)cc2)nn(-c2ccc(Cl)cc2Cl)c1-c1ccc(Cl)cc1 (centres unmarked) [AKS-10262-10] | 86.1%

biological target: T2, human CB1 receptor (Homo sapiens, UniProt P21554); assay: Radioligand displacement in human CB1 receptor-transfected cells (HEK-293); format: binding; conditions: Ki, displacement of 3H-CP55940, human CB1 transfected cells; 3H-CP55940; Table 5, parallel synthesis analogs, concentration assumes 100% yield
T2 construct: expressed in transfected cells; host or cells: HEK-293
Procedure: Human CB1 receptor affinity. The alkyl amide analogs of the present invention were examined using transfected cell lines expressing the human CB1 receptor (Table 3).
Methods—binding assay in transfected cell lines. The methods used for performing binding assays in transfected cells expressing human CB1 or CB2 receptors are those used above. The CB1 receptor involved a HEK-293 expression system whereas the CB2 receptor was expressed in CHO-K1 cells. […] The incubations and separations were then performed as described above for rat brain membrane preparations.
as §1, §2

T2 sequence (P21554 whole entry): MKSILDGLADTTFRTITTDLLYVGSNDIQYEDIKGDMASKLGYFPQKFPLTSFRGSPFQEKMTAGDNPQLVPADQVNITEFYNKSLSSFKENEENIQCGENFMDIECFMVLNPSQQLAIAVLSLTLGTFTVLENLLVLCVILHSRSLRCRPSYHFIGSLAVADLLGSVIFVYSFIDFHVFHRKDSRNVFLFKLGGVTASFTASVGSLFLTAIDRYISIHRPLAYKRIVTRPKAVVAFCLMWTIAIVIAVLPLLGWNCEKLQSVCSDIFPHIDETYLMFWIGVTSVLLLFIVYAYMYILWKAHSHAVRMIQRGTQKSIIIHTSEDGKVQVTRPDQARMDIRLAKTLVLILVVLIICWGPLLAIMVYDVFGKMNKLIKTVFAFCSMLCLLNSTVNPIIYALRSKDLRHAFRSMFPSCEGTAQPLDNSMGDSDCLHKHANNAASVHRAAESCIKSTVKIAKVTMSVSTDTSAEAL

Row | Structure (SMILES) | Ki
24 | COc1ccc(CCNC(=O)c2nn(-c3ccc(Cl)cc3Cl)c(-c3ccc(Cl)cc3)c2C)cc1 [AM-29] | 56.9 nM
25 | COc1ccc(NC(=O)c2nn(-c3ccc(Cl)cc3Cl)c(-c3ccc(Cl)cc3)c2C)cc1 [AN-2] | 220 nM
26 | CCCCCCCCCCCCCNC(=O)c1nn(-c2ccc(Cl)cc2Cl)c(-c2ccc(Cl)cc2)c1C [BT-6] | 201 nM
27 | Cc1c(C(=O)NC(C)Cc2ccc(Cl)cc2)nn(-c2ccc(Cl)cc2Cl)c1-c1ccc(Cl)cc1 (centres unmarked) [AKS-10262-10] | 22.9 nM

same assay, conditions: Ki, displacement of 3H-SR141716A, human CB1 transfected cells; 3H-SR141716A; Table 5, parallel synthesis analogs, concentration assumes 100% yield

Row | Structure (SMILES) | Ki
28 | COc1ccc(CCNC(=O)c2nn(-c3ccc(Cl)cc3Cl)c(-c3ccc(Cl)cc3)c2C)cc1 [AM-29] | 16.1 nM
29 | COc1ccc(NC(=O)c2nn(-c3ccc(Cl)cc3Cl)c(-c3ccc(Cl)cc3)c2C)cc1 [AN-2] | 101 nM
30 | CCCCCCCCCCCCCNC(=O)c1nn(-c2ccc(Cl)cc2Cl)c(-c2ccc(Cl)cc2)c1C [BT-6] | 4.2 nM
31 | Cc1c(C(=O)NC(C)Cc2ccc(Cl)cc2)nn(-c2ccc(Cl)cc2Cl)c1-c1ccc(Cl)cc1 (centres unmarked) [AKS-10262-10] | 2.38 nM

same assay, conditions: Ki, displacement of 3H-WIN55212-2, human CB1 transfected cells; 3H-WIN55212-2; Table 5, parallel synthesis analogs, concentration assumes 100% yield

Row | Structure (SMILES) | Ki
32 | COc1ccc(CCNC(=O)c2nn(-c3ccc(Cl)cc3Cl)c(-c3ccc(Cl)cc3)c2C)cc1 [AM-29] | 74.5 nM
33 | COc1ccc(NC(=O)c2nn(-c3ccc(Cl)cc3Cl)c(-c3ccc(Cl)cc3)c2C)cc1 [AN-2] | 128 nM
34 | CCCCCCCCCCCCCNC(=O)c1nn(-c2ccc(Cl)cc2Cl)c(-c2ccc(Cl)cc2)c1C [BT-6] | 173 nM
35 | Cc1c(C(=O)NC(C)Cc2ccc(Cl)cc2)nn(-c2ccc(Cl)cc2Cl)c1-c1ccc(Cl)cc1 (centres unmarked) [AKS-10262-10] | 70.2 nM

same assay, conditions: human CB1 transfected cells; 3H-CP55940; Table 5, parallel synthesis analogs

Row | Structure (SMILES) | Max. Disp. %, 3H-CP55940
36 | COc1ccc(CCNC(=O)c2nn(-c3ccc(Cl)cc3Cl)c(-c3ccc(Cl)cc3)c2C)cc1 [AM-29] | 80.3%
37 | COc1ccc(NC(=O)c2nn(-c3ccc(Cl)cc3Cl)c(-c3ccc(Cl)cc3)c2C)cc1 [AN-2] | 62.6%
38 | CCCCCCCCCCCCCNC(=O)c1nn(-c2ccc(Cl)cc2Cl)c(-c2ccc(Cl)cc2)c1C [BT-6] | 75.9%
39 | Cc1c(C(=O)NC(C)Cc2ccc(Cl)cc2)nn(-c2ccc(Cl)cc2Cl)c1-c1ccc(Cl)cc1 (centres unmarked) [AKS-10262-10] | 94.8%

same assay, conditions: human CB1 transfected cells; 3H-SR141716A; Table 5, parallel synthesis analogs

Row | Structure (SMILES) | Max. Disp. %, 3H-SR141716A
40 | COc1ccc(CCNC(=O)c2nn(-c3ccc(Cl)cc3Cl)c(-c3ccc(Cl)cc3)c2C)cc1 [AM-29] | 96.3%
41 | COc1ccc(NC(=O)c2nn(-c3ccc(Cl)cc3Cl)c(-c3ccc(Cl)cc3)c2C)cc1 [AN-2] | 87.3%
42 | CCCCCCCCCCCCCNC(=O)c1nn(-c2ccc(Cl)cc2Cl)c(-c2ccc(Cl)cc2)c1C [BT-6] | 91.3%
43 | Cc1c(C(=O)NC(C)Cc2ccc(Cl)cc2)nn(-c2ccc(Cl)cc2Cl)c1-c1ccc(Cl)cc1 (centres unmarked) [AKS-10262-10] | 100%

same assay, conditions: human CB1 transfected cells; 3H-WIN55212-2; Table 5, parallel synthesis analogs

Row | Structure (SMILES) | Max. Disp. %, 3H-WIN55212-2
44 | COc1ccc(CCNC(=O)c2nn(-c3ccc(Cl)cc3Cl)c(-c3ccc(Cl)cc3)c2C)cc1 [AM-29] | 100%
45 | COc1ccc(NC(=O)c2nn(-c3ccc(Cl)cc3Cl)c(-c3ccc(Cl)cc3)c2C)cc1 [AN-2] | 68.1%
46 | CCCCCCCCCCCCCNC(=O)c1nn(-c2ccc(Cl)cc2Cl)c(-c2ccc(Cl)cc2)c1C [BT-6] | 94.9%
47 | Cc1c(C(=O)NC(C)Cc2ccc(Cl)cc2)nn(-c2ccc(Cl)cc2Cl)c1-c1ccc(Cl)cc1 (centres unmarked) [AKS-10262-10] | 65.5%
